The results in this text go back to ChEMBL document CHEMBL1154287, “Phenylaminopyrimidines as inhibitors of Janus kinases (JAKs)” (Bioorg Med Chem Lett, 2009).

Each structure is given as a SMILES string.

A short description of data set [1]: in vitro. Conditions: human, Caco-2.
Description: Ratio of permeability from apical to basolateral side over basolateral to apical side in human Caco-2 cells
Data set [2] can be described thus: Apparent permeability from basolateral to apical side in human Caco-2 cells. The data set is classed as ADME, cell-based. (In general: Caco-2 monolayers are a common model of the intestinal barrier.)
Data set [3] is described as follows: in vitro. The conditions noted are these: human, Caco-2. This is another data set of the same source.
Description: Apparent permeability from apical to basolateral side in human Caco-2 cells
Data set [4] addresses T1, Tyrosine-protein kinase JAK3 (Homo sapiens, UniProt P52333).
T1 sequence (P52333 whole entry): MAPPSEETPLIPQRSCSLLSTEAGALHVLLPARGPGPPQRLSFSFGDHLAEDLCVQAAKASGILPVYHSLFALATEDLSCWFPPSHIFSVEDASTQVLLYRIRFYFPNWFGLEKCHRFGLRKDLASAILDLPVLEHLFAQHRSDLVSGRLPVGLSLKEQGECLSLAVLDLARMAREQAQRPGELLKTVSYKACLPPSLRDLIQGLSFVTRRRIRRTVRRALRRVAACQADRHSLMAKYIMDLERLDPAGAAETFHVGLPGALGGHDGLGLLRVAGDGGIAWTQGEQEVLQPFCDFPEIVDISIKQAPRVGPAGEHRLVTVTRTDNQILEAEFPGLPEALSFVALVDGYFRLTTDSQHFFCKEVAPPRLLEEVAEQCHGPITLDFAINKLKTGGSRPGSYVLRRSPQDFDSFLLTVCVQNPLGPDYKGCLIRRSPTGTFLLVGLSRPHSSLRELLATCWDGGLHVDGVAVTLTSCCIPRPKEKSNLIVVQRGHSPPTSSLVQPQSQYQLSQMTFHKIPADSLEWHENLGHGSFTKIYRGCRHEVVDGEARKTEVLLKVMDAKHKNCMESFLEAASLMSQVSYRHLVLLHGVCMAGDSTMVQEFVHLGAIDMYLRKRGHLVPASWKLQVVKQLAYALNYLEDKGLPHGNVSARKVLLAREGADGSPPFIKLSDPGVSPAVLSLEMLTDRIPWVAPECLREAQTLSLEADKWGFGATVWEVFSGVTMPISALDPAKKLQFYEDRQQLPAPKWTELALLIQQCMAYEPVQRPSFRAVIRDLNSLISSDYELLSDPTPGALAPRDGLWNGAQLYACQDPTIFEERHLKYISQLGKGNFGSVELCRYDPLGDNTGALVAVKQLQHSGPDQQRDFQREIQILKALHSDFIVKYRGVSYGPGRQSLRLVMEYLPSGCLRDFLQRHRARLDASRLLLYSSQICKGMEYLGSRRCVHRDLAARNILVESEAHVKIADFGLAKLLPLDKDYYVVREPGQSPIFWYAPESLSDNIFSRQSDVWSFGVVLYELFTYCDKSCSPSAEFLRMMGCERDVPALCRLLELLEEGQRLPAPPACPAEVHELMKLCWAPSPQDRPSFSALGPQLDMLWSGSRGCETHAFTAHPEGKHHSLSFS
Description: Inhibition of GST-tagged JAK3 kinase

In data set [5] the test system is BaF3. As to the kind of experiment: cells. Conditions: Mus musculus, BaF3, 72 h.
Description: Antiproliferative activity against mouse BAF3 cells expressing TEL-JAK3 kinase after 72 hrs by alamar blue assay
Data set [6] can be described thus: Cmax in Sprague-Dawley rat at 21 mg/kg. The class given is ADME, organism-based. Also on record: dose 21 mg/kg. Conditions: in vivo.
In data set [7] the target is Tyrosine-protein kinase JAK2 (Homo sapiens, UniProt O60674).
Tyrosine-protein kinase JAK2, sequence (O60674 whole entry): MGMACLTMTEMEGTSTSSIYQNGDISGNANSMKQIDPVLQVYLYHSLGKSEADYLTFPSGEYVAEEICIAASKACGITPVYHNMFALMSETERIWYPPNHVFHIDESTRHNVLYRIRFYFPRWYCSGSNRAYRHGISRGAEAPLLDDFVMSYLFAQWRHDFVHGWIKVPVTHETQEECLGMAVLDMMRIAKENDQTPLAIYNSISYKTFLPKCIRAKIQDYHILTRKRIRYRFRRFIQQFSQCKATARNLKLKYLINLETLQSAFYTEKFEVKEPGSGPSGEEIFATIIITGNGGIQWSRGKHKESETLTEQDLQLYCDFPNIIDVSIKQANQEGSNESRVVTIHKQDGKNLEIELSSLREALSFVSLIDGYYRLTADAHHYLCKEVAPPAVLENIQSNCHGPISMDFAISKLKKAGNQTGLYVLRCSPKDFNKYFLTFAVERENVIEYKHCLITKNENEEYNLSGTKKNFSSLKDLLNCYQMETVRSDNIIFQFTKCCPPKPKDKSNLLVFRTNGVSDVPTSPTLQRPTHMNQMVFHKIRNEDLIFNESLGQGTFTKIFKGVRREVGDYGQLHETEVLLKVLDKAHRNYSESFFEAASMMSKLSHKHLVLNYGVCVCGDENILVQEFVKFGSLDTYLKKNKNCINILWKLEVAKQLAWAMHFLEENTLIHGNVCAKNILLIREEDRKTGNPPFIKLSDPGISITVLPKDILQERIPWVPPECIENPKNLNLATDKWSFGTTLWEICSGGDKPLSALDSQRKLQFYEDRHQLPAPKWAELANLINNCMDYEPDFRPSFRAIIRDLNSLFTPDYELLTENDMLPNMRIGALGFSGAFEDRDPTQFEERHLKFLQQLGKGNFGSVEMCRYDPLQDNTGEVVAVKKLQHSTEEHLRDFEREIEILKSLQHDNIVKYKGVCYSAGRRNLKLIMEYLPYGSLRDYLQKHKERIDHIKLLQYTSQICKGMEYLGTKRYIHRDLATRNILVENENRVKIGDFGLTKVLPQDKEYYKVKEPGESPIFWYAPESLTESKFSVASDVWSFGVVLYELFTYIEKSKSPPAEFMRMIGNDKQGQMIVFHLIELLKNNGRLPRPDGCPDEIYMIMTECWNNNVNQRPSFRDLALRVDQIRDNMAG
Description: Inhibition of GST-tagged JAK2 kinase
Data set [8] concerns BaF3. As to the kind of experiment: cells. Conditions: Mus musculus, BaF3, 72 h. The source holds these as a separate data set.
Description: Antiproliferative activity against mouse BAF3 cells expressing TEL-JAK2 kinase after 72 hrs by alamar blue assay
A further data set in a line: cells. Conditions: Mus musculus, CTLL-2, 72 h.
The nature of data set [9]: Blood clearance in Sprague-Dawley rat at 21 mg/kg, iv. Set-up: dose 21 mg/kg, route intravenous. The class given is ADME, organism-based.
Data set [10] can be described thus: Oral bioavailability in Sprague-Dawley rat at 21 mg/kg. The data set is classed as ADME, organism-based. Conditions: in vivo.
Data set [11] in a line: Antiproliferative activity against human SET2 cells expressing JAK2 V617F mutant kinase after 72 hrs by alamar blue assay. The class given is functional, cell-based. Conditions: SET-2, 72 h. (Resazurin is reduced to fluorescent resorufin, in cell work by metabolically active cells.)
For data set [12], the system named is BaF3. As to the kind of experiment: Antiproliferative activity against mouse BAF3 cells expressing wild type JAK2 kinase after 72 hrs by alamar blue assay in presence of IL-3. The data set is classed as functional, cell-based. Conditions: BaF3, 72 h.
For a further data set, the system named is K562. As to the kind of experiment: cells. Conditions: Homo sapiens, K562, 72 h.
A short description of data set [13]: Cmax in Sprague-Dawley rat at 18 mg/kg, po. The data set is classed as ADME, organism-based. Set-up: dose 18 mg/kg, route oral. Conditions: in vivo.
The nature of data set [14]: Apparent half life in Sprague-Dawley rat at 18 mg/kg, po. Set-up: dose 18 mg/kg, route oral. The class given is ADME, organism-based. The conditions noted are these: in vivo.
Data set [15] is described as follows: Tmax in Sprague-Dawley rat at 18 mg/kg, po. The data set is classed as ADME, organism-based. Set-up: dose 18 mg/kg, route oral. Conditions: in vivo.
Data set [16] is described as follows: Blood clearance in Sprague-Dawley rat at 18 mg/kg, po. The data set is classed as ADME, organism-based. Also on record: dose 18 mg/kg, route oral.

Description for K562: Antiproliferative activity against human K562 cells after 72 hrs by alamar blue assay

`CC(C)NCC(O)COc1cccc2ccccc12` (centres undefined) [PROPRANOLOL]: in the data set “in vitro [1]”, the efflux ratio stood at 1.3. In [2], the Papp B→A is 48.8 ×10⁻⁶ cm/s. The compound further showed a Papp A→B in “in vitro [3]” of 38.7 ×10⁻⁶ cm/s.

`CS(=O)(=O)Nc1ccc(-c2ccnc(Nc3ccc(CN4CCS(=O)(=O)CC4)cc3)n2)cc1`: the IC50 in [4] was found to be 587 nM; with BaF3 [5] it was 3560 nM; in data set [7], 2 nM; in the data set with BaF3 [8], 802 nM; in “cells”, 2220 nM. In data set [6], this compound registered a Cmax of 0.27 µM. Besides, the efflux ratio in “in vitro [1]” was determined as 12.3. The Papp B→A in data set [2] is 56.4 ×10⁻⁶ cm/s. In addition, the apparent permeability from apical to basolateral (Papp A→B) in “in vitro [3]” is 4.6 ×10⁻⁶ cm/s. In data set [9], the clearance is 36.6 mL/min/kg. This compound also showed a bioavailability in data set [10] of 5.4%.

As for `OC[C@@H](O)[C@@H](O)[C@H](O)[C@H](O)CO` [MANNITOL], in “in vitro [1]”, the efflux ratio amounted to 1.5. The Papp B→A in [2] is 1.1 ×10⁻⁶ cm/s. Moreover, the Papp A→B in “in vitro [3]” worked out at 0.7 ×10⁻⁶ cm/s.

Regarding `N#CCNC(=O)c1ccc(-c2ccnc(Nc3ccc(N4CCOCC4)cc3)n2)cc1` [MOMELOTINIB], the IC50 in [11] is 232 nM; in the data set on BaF3 [12], 1430 nM; in the data set with BaF3 [5], 2420 nM; in the data set on K562, greater than 20000 nM; in the data set with BaF3 [8], 798 nM; in the data set “cells”, 1250 nM. Besides, in data set [2], the Papp B→A came to 27.3 ×10⁻⁶ cm/s. The compound also gave a Cmax in data set [13] of 40.4 µM. Besides, the half-life in data set [14] was 2.4 h. Moreover, in [15], the Tmax is 4 h. Also, the CL/F in data set [16] was 6.3 mL/min/kg. The same compound yielded an apical-to-basolateral permeability (Papp A→B) in “in vitro [3]” of 30.4 ×10⁻⁶ cm/s.

As to `N#CCNC(=O)c1ccc(-c2ccnc(Nc3ccc(CN4CCOCC4)cc3)n2)cc1`, the IC50 in [4] was determined as 1450 nM; in the data set with BaF3 [5], 9500 nM; in data set [7], 163 nM; in the data set with BaF3 [8], 2800 nM; in the data set “cells”, 5070 nM.

For the compound `CS(=O)(=O)Nc1ccc(-c2ccnc(Nc3ccc(N4CCC(O)CC4)cc3)n2)cc1`, the IC50 came out at 149 nM in [4]; 6550 nM with BaF3 [5]; 6 nM in data set [7]; 933 nM in the data set with BaF3 [8]; 1490 nM in the data set “cells”.

Consider `COc1cc(-c2ccnc(Nc3ccc(N4CCOCC4)cc3)n2)ccc1O`, for which the IC50 was 62 nM in data set [4]; 2550 nM in the data set with BaF3 [5]; 3 nM in data set [7]; 380 nM in the data set with BaF3 [8]; less than 160 nM in the data set “cells”.

As for `CS(=O)(=O)Nc1ccc(-c2ccnc(Nc3ccc(CN4CCCCC4)cc3)n2)cc1`, the half-inhibitory concentration (IC50) in data set [4] stood at 538 nM; in the data set with BaF3 [5] it was 730 nM; in data set [7], 11 nM; in the data set with BaF3 [8], 580 nM; in “cells” it was 735 nM.

Regarding `N#CCNCc1cccc(-c2ccnc(Nc3ccc(N4CCOCC4)cc3)n2)c1`, the half-maximal inhibitory concentration (IC50) in data set [4] is greater than 1000 nM; with BaF3 [5] it was greater than 20000 nM; in data set [7] it was 132 nM; in the data set on BaF3 [8], 9820 nM; in the data set “cells”, 8030 nM.

For the compound `CCN1CCN(Cc2ccc(Nc3nccc(-c4ccc(C(=O)NCC#N)cc4)n3)cc2)CC1`, the IC50 in data set [4] stood at 152 nM; in the data set on BaF3 [5], 1230 nM; in data set [7] it was 47 nM; in the data set with BaF3 [8] it was 423 nM; in the data set “cells”, 1850 nM.

With `N#CCNC(=O)c1cccc(-c2ccnc(Nc3ccc(N4CCOCC4)cc3)n2)c1`, the IC50 in data set [4] was greater than 5000 nM; in the data set on BaF3 [5] it was greater than 20000 nM; in data set [7] it was 545 nM; in the data set with BaF3 [8] it was greater than 20000 nM; in the data set “cells” it was greater than 20000 nM.

By efflux ratio is commonly meant the permeability from basolateral to apical divided by that in the opposite direction, in the common usage. The Papp B→A is the apparent permeability from the basolateral to the apical side of a cell layer. One may read the Papp A→B as how fast a substance crosses the layer from the apical side. A lower Papp A→B goes with slow passage. Usually IC50 stands for the concentration needed to halve the response being measured. A word on the Cmax: it is the maximum level reached in the sampled fluid or tissue. What is called clearance is the rate of elimination divided by the concentration. A lower clearance goes with inefficient removal. By bioavailability is commonly meant the share of a dose that reaches the circulation, judged against a reference dose that is usually intravenous. A low value points to poor availability. The term half-life denotes how long it takes for the measured level to halve. The term Tmax denotes the time at which the peak concentration occurs. Usually CL/F stands for clearance divided by bioavailability, as obtained after extravascular dosing.
